Results on 13 molecules are retold here after patent US20250275940A1, “PTEROSTILBENE AND SILIBININ FOR PREVENTING, AMELIORATING OR REDUCING RADIATION-INDUCED DISEASES” (UNIVERSITAT DE VALÈNCIA, priority 2021, published 2025).

Data set [1] can be described thus: PT, SIL and NAD+ levels in circulating blood. As to conditions: treated and irradiated mice, FIG. 10B. The protocol: Briefly, samples were analyzed through HPLC (Ultimate 3000, Thermo Fisher Scientific) and MS/MS (Waters TQ detector triple quadrupole) systems on a Hypurity™ C18 column (50×4.6 mm) using an injection volume of 5 μL. The mobile phases consisted of water (A) and acetonitrile (B). […] MS/MS data acquisition was performed under negative electrospray ionization mode. […] The fragmentary voltage was 150 V, and the collision energy 15 eV. Tissue sample preparation was as described for determination of PTER levels (above).
Whole-blood samples (0.5 ml) were collected in sodium citrate tubes at 4° C. Then a whole-blood aliquot of 0.1 ml was transferred to a cryovial containing 0.9 ml of 0.5 M ice-cold perchloric acid to lyse all blood cells. Samples were centrifuged at 10,000 g×10 min (4° C.). Supernatants were stored at −80° C. until analyzed.

For data set [2], the system named is Swiss albino mice subjected to whole-body γ irradiation. As to the kind of experiment: Survival of mice subjected to whole-body γ irradiation (LD50/30). The format is in vivo. From the text:
Swiss albino mice (male, 9-10 weeks old, 30-32 g) were obtained from Charles River Laboratories (Wilmington, MA). This strain is among the most common used in radiation studies (Williams 2010). Mice were fed with a nutritionally complete diet (standard diet, SD) before irradiation. This was A03 from Panlab (Barcelona, Spain), which has 3,200 kcal/kg and the following nutritional composition: crude protein, 23.5%; crude fat, 4.3%; crude fiber, 3.7%; and carbohydrates, 51.1%; vitamins and minerals were provided as in the NIH-7 open formula for rat and mouse. This diet meets the dietary allowances recommended for adult mice by the American Institute of Nutrition. The animals were fed ad libitum and kept in individual metabolic cages, in which body weight and food ingestion were monitored daily. The animal room was maintained at 22° C. on a 12 h light/12 h dark cycle. Ad libitum intake of drinking water was also allowed. Care of irradiated mice followed the recommendation of the Robert Wood Johnson Medical School (Piscataway, NJ) for mouse total body irradiation (policy 15), which includes: a) use of antibiotics in the drinking water (134 mg ampicillin/kg/day, 40 mg baytril/kg/day, and 220/42 mg sulfamethoxazole/trimethoprim/kg/day), b) making drinking water readily available, c) Napa nectar Systems Engineering Lab Group Inc., Napa, CA) provided on the bottom of the cage during the first 14 days and replaced daily, d) provision of softened food served in a small Petri dish on the cage floor, e) completely sterile environment (cage, food, and water) to avoid potential immunosuppression-associated infections. A free-standing wheel inside the cage was also included to facilitate the physical exercise of the animals. All experiments were started at 10.00 h to minimize possible circadian variations. Procedures involving animals were in compliance with international laws and policies (EEC Directive 86/609, OJ L 358. 1, Dec. 12, 1987; and NIH Guide for the Care and Use of Laboratory Animals, NIH Publ. No. 85-23, 1985). Mice were subjected to g-radiation (^137Cs) (total body irradiation, TBI) in a BIOBEAM 8000 (Gamma-Service Medical GmbH, Leipzig, Germany). Single fraction radiotherapy, at total doses ranging from approx. 5.0 to 10.0 Gy, was administered at a rate of approx. […]. The irradiation distance from the source was limited to 12 cm. Radiation dosimetry was controlled using alanine dosimeters from Bruker (Billerica, MA) with dosimetry variation of +/−0.09 Gy. […] NR (nicotinamide riboside, 3-aminocarbonyl-1-b-D-ribofuranosyl-pyridinium, Elysium Health, Inc., New York, NY) was dissolved in vaccination-grade water, and the pH of the solution neutralized (pH 7.0) before oral administration (185 mg/kg×day, Obrador 2020). FSL-1 (InvivoGen, San Diego, CA) was resuspended in sterile vaccination-grade water, and administered IP (0.25 mg/kg×day, the volume administered was of […] depending on the weight of the mouse, as recommended by Kurkjian 2017). Pharmaceutical grade amifostine (Ethyol) was obtained from Cumberland Pharmaceuticals (Nashville, TN) as 500 mg sterile lyophilized powder vial, and reconstituted with physiological saline prior to use.
First, the effects of γ radiation and mice survival were studied. […] Mice received whole-body γ radiation (one single dose; ^137Cs, 0.5-0.6 Gy/min; Biobeam 8000, GSM GmbH). One Gy=absorption of 1 J of energy/kg of matter.
Next, the thirty-days survival of mice treated with γ rays (LD50/30) and pterostilbene (PT) was analysed (FIG. 1B).

Data set [3] concerns the target nicotinamide phosphoribosyltransferase (NAMPT) (Mus musculus, UniProt Q99KQ4). As to conditions: mice treated with FK866 for 6 days, FIG. 14b.
Method: FK866 was administered in vivo (15 mg/kg, twice daily by intraperitoneal injection, during 6 days and starting 3 days prior to irradiation, see FIG. 11a), and was also present in the cell cultures (100 nM). Cells were isolated 72 h after irradiation. […] Mice were treated with the inhibitor for 6 days as above (a).
Formation of 14C-nicotinamide mononucleotide (NMN) from 14C-nicotinamide (NAM, (GE Healthcare Life Sciences, Björkgatan, Uppsala, Sweden) can be measured by precipitation of 14C-NMN in acetone on filter paper and scintillation counting. Cell dispersion was carried out by trypsinization (in Mg^2+- and Ca2^+-free PBS supplemented with 0.2% trypsin, 0.5 mM EDTA, and 5 mM glucose for 3 min at 37° C.). Cell pellets were obtained by centrifugation (800 g×5 min at 4° C.), and then 100 μl of phosphate buffer [0.01 M Na2HPO4/NaH2PO4 buffer, pH 7.4, containing protease inhibitor (Sigma-Aldrich)] was added to each cell sample. Samples were further processed, and NAMPT activity was determined on 30 μg of protein as described previously (Elliott G C, et al. 1980, and Schuster S, et al. 2014). Radioactivity (disintegrations/min) was measured using a Tri-Carb® Liquid Scintillation Counter from Perkin-Elmer. Background disintegrations/min from scintillation fluid was subtracted from each measurement.
In a further data set the test system is cellular NAD+ content. As to the kind of experiment: NAD+ content of cells isolated from mice. The conditions noted are these: FIG. 14a. The format is in vivo. The protocol:
(§1) FIG. 14. […] Cells were isolated 72 h after irradiation. […] Mice were treated and cells isolated as above (a).
Isolated cells were homogenized in 0.1M phosphate buffer (pH 7.2) at 4° C. γ-glu tamylcysteine ligase (GCL), glutathione peroxidase (GPX), catalase (CAT), and superoxide dismutase 1 and 2 (SOD1 and SOD2) activities were measured as previously described in detail (Benlloch 2016). Protein concentration was determined with the Pierce BCA protein assay (Thermo Fisher Scientific). Glutathione ([…]-L-glutamyl-L-cystenyl-glycine, GSH) was determined by LC/MS as previously reported (Obrador 2014). Cell processing was performed according to published methodology, where rapid N-ethylmaleimide derivatization was used to prevent GSH auto-oxidation (Asensi 1994). NAD^+ and NADH in isolated cells were quantitated using assay kits from MyBiosource (San Diego, CA).
Presumably, the effect of the polyphenols is an antioxidant-related mechanism, whereas the NR-induced increase in NAD+ directly promotes the DNA repair activity.

For a further data set, the system named is cellular DNA damage. As to the kind of experiment: Comet assay of DNA damage in cells isolated from γ-irradiated mice. The data set is classed as in vivo. As to conditions: FIG. 14c. The protocol: as §1
This assay is a single cell gel electrophoresis assay for simple evaluation of cellular DNA damage. We used the assay kit from Abcam (ab238544) (Cambridge, UK). The manufacturer's instructions were followed step by step.

The subject of data set [4] is hematopoietic colony forming cells CFU-GM and CFU-GEMM. The data set is described as follows: Colony forming cells in the bone marrow. The data set is classed as in vivo. The conditions noted are these: femurs of γ-irradiated mice, 7 days after irradiation, FIG. 14d. The protocol: as §1
Mice were sacrificed under aseptic conditions and femurs were isolated on day 7 post irradiation. Bone marrow cells were flushed from the isolated femurs (see above) with phosphate-buffered saline (4° C.) supplemented with 5% fetal bovine serum. Single-cell suspension was passed through 100 μm nylon mesh strainer to remove debris and clumps. Cells were washed twice with phosphate-buffered saline (4° C.) and counted using a hemocytometer. Cells were plated ex vivo at a concentration of 5×10^4 cells per 35 mm cell culture dish in Methocult GF M3434 (Stemcell Technologies, Vancouver, Canada) growth medium according to the manufacturer's protocol and incubated for 14 days at 37° C., 5% CO2, 95% humidity. Colonies were visualized on day 14 of culture using light microscopy (AxioCam MRc5, Zeiss, Oberkochen, Germany) under a polarised light and scanned in a 60 mm gridded scoring Petri dish (Stemcell Technologies). Hematopoietic colony forming cells CFU-GM and CFU-GEMM were quantified.

Where [5] appears, read: 60 days after γ radiation (LD50/30), compounds administered orally, FIG. 2C.
[6] abbreviates: 6 days after γ radiation (LD50/30), compounds administered orally, FIG. 2A.
The mark [7] stands for this setting: 60 days post γ irradiation (LD50/30), NR oral 185 mg/kg×day for 30 days after irradiation, FSL-1 IP 0.25 mg/kg once 24 h after, FIG. 9.

Sequence of nicotinamide phosphoribosyltransferase (NAMPT) (Q99KQ4 whole entry): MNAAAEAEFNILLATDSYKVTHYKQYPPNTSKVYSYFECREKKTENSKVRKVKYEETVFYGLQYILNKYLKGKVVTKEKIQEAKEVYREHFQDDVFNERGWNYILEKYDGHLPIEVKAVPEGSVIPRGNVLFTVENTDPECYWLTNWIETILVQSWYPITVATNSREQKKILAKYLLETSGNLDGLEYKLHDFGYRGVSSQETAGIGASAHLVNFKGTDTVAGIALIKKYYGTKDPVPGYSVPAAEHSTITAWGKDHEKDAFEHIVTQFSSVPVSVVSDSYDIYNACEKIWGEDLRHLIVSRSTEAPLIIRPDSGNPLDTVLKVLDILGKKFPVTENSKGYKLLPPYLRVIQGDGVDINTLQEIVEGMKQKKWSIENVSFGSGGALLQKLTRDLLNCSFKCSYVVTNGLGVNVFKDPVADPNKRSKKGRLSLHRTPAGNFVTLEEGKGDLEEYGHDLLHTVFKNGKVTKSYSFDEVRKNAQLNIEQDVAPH

On to `COc1cc([C@@H]2Oc3cc(C4Oc5cc(O)cc(O)c5C(=O)[C@H]4O)ccc3O[C@H]2CO)ccc1O` (stereo in doubt) [SIL, 3,5,7-trihydroxy-2-[3-(4-hydroxy-3-methoxyphenyl)-2-(hydroxymethyl)-2,3-dihydro-1,4-benzodioxin-6-yl]-2,3-dihydrochromen-4-one], for which the “SIL levels in circulating blood, 30 min vs 120 min” value in data set [1] is given as “higher 30 min after”. The survival entry in data set [2] (setting [5]) is reported as “around 10%”.

With `Oc1cc(O)c2cc(O)c(-c3cc(O)c(O)c(O)c3)[o+]c2c1` [Delphinidin], in data set [2] (setting [5]), the survival entry is recorded as “around 12%”.

Regarding `O=C(O[C@@H]1Cc2c(O)cc(O)cc2O[C@@H]1c1cc(O)c(O)c(O)c1)c1cc(O)c(O)c(O)c1` [EGCG, epigallocatechin gallate], the results for the survival result in data set [2] (setting [6]) and in data set [2] (setting [5]) were “around 100%” and 0%, respectively.

With `O=C(/C=C/c1cccnc1)NCCCCC1CCN(C(=O)c2ccccc2)CC1` [FK866, reference compound], the NAMPT activity entry in data set [3] was “drastic decrease”. Moreover, the “NAD+ levels in mice treated with PT+SIL+NR or PT+SIL+NR+γ rays” value with cellular NAD+ content (FK866 15 mg/kg twice daily IP 6 days and 100 nM in cell cultures) is “decreased”.

With `O=C(O)c1cc(O)c(O)c(O)c1` [Gallic acid, gallic acid], the survival entry was “around 100%” in data set [2] (setting [6]) and “around 5%” in data set [2] (setting [5]).

With `O=c1c(-c2ccc(O)cc2)coc2cc(O)cc(O)c12` [Genistein, genistein], in data set [2] (setting [5]), the survival entry was “around 7%”.

Regarding `O=c1cc(-c2ccc(O)c(O)c2)oc2cc(O)cc(O)c12` [Luteolin, luteolin], in data set [2] (setting [5]), the survival came out at 0%. The “percentage of survival reduced in” value in data set [2] (after 30 days, γ radiation (LD50/30), oral, FIG. 2B) is given as “about 40%”.

As to `NC(=O)c1ccc[n+]([C@@H]2O[C@H](CO)[C@@H](O)[C@H]2O)c1` [NR, 3-aminocarbonyl-1-b-D-ribofuranosyl-pyridinium], the “DNA recovery (DNA damage COMET assay)” value in the data set with cellular DNA damage is on record as “favored DNA recovery”. Besides, the “decrease of NAD+ induced by γ radiation” value in the data set on cellular NAD+ content (cells isolated 72 h after irradiation) is “prevents”. Moreover, in the data set with cellular NAD+ content (cells isolated from treated mice), the “NAD+ content in different cell types” value is on record as “increases”. The molecule further came in with a survival in data set [2] (setting [7]) of 0%.

In data set [2] (setting [5]), `O=C1C[C@@H](c2ccc(O)cc2)Oc2cc(O)cc(O)c21` [Naringerin, naringenin] had a survival of 0%.

In data set [2] (setting [5]), `O=C(CCc1ccc(O)cc1)c1c(O)cc(O)cc1O[C@@H]1O[C@H](CO)[C@@H](O)[C@H](O)[C@H]1O` [Phloridzin, phloridzin] had a survival of 0%.

With `O=c1c(O)c(-c2ccc(O)c(O)c2)oc2cc(O)cc(O)c12` [Quercetin, quercetin], in data set [2] (setting [5]), the survival was 0%.

Take `Oc1ccc(C=Cc2cc(O)cc(O)c2)cc1` [Resv, resveratrol]: in data set [2] (orally once per day, 5 days before and 2 days after γ irradiation (7.2 Gy), FIG. 1C), the “radioprotective effects compared with PT” value is listed as “lower than those of PT”.

FSL-1: in data set [4], the “hematopoietic colony forming cells CFU-GEMM” value is reported as “increases” and the “hematopoietic colony forming cells CFU-GM” value is recorded as “increases”. In addition, in data set [2] (setting [7]), the survival is on record as 5%.
